Test results from ChEMBL document CHEMBL1201862, “PubChem BioAssay data set” (2004).
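Each compound was tested at five concentrations against cells in 96-well plates for 48 hours. Abbreviation: GI50, concentration required for 50% inhibition of growth.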 Active and inactive are the calls of the source. Rule as the data show it: active = GI50 up to about 1.1 µM and inactive = higher.

Legend:
Assay in all cases: growth of human tumour cells (NCI), 48 h
ACHN = test system: ACHN
CAKI-1 = test system: CAKI-1
CCRF-CEM = test system: CCRF-CEM
COLO 205 = test system: COLO 205
EKVX = test system: EKVX
HCT-15 = test system: HCT-15
HL-60 = test system: HL-60
K562 = test system: K562
KM12 = test system: KM12
NCI-H226 = test system: NCI-H226
NCI-H522 = test system: NCI-H522
OVCAR-8 = test system: OVCAR-8
U-251 = test system: U-251
UACC-257 = test system: UACC-257
UO-31 = test system: UO-31
HCC 2998 = test system: HCC 2998
SNB-19 = test system: SNB-19

Compound | GI50 (ACHN) | GI50 (CAKI-1) | GI50 (CCRF-CEM) | GI50 (COLO 205) | GI50 (EKVX) | GI50 (HCT-15) [µM] | GI50 (HL-60) | GI50 (K562) | GI50 (KM12) | GI50 (NCI-H226) | GI50 (NCI-H522) | GI50 (OVCAR-8) | GI50 (U-251) | GI50 (UACC-257) | GI50 (UO-31) | GI50 (HCC 2998) | GI50 (SNB-19)
O=C(Nc1ccn(CCOC(=O)c2ccccc2)c(=O)n1)c1ccccc1 | > 100 µM (inactive) | > 100 µM (inactive) | > 100 µM (inactive) | > 100 µM (inactive) | > 100 µM (inactive) | > 100 | > 100 µM (inactive) | > 100 µM (inactive) | > 100 µM (inactive) | > 100 µM (inactive) | > 100 µM (inactive) | > 100 µM (inactive) | > 100 µM (inactive) | > 100 µM (inactive) | > 100 µM (inactive) |  | 
CC1OC(CC(=O)O)Cc2c(O)c3c(c(O)c21)C(=O)C=C(C1=CC(=O)c2c(O)c4c(c(O)c2C1=O)CC(CC(=O)O)OC4C)C3=O (centres undefined) | 26.1 µM (inactive) | 29.1 µM (inactive) | 2.75 µM (inactive) | 5.28 µM (inactive) | 13.5 µM (inactive) | 11.6 | 3.03 µM (inactive) | 9.4 µM (inactive) | 39.1 µM (inactive) | 50.8 µM (inactive) | 6.25 µM (inactive) | 23.4 µM (inactive) | 26.1 µM (inactive) | 13.4 µM (inactive) | 47.2 µM (inactive) | 46.3 µM (inactive) | > 100 µM (inactive)
O=C1C=C(Nc2ccc(Cl)cc2C(=O)c2ccccc2)c2ccccc2C1=O | > 100 µM (inactive) | > 100 µM (inactive) | > 100 µM (inactive) | > 100 µM (inactive) | > 100 µM (inactive) | > 100 | > 100 µM (inactive) | > 100 µM (inactive) | > 100 µM (inactive) | > 100 µM (inactive) | > 100 µM (inactive) | > 100 µM (inactive) | > 100 µM (inactive) | > 100 µM (inactive) | > 100 µM (inactive) | > 100 µM (inactive) | > 100 µM (inactive)
CN1CCOC(c2ccccc2)O1 (centres undefined) | > 100 µM (inactive) | > 100 µM (inactive) | > 100 µM (inactive) | > 100 µM (inactive) | > 100 µM (inactive) | > 100 | > 100 µM (inactive) | > 100 µM (inactive) | > 100 µM (inactive) | > 100 µM (inactive) | > 100 µM (inactive) | > 100 µM (inactive) | > 100 µM (inactive) | > 100 µM (inactive) | > 100 µM (inactive) | > 100 µM (inactive) | > 100 µM (inactive)
COC(=O)/C(C)=C/[N+](=O)[O-] | 19.5 µM (inactive) | 2.57 µM (inactive) | 2.59 µM (inactive) | 4.67 µM (inactive) | 15.9 µM (inactive) | 13.5 | 14.1 µM (inactive) | 3.4 µM (inactive) | 18.5 µM (inactive) |  |  | 22.2 µM (inactive) | 18.5 µM (inactive) | 15.8 µM (inactive) | 18.9 µM (inactive) | 17.3 µM (inactive) | 17.1 µM (inactive)
O=C1CC2CC=C[C@H]3c4cc5c(cc4C(=O)N1C23)OCO5 (some centres undefined) | > 50 µM (inactive) |  | > 50 µM (inactive) | > 50 µM (inactive) | > 50 µM (inactive) | > 50 | > 50 µM (inactive) | > 50 µM (inactive) | > 50 µM (inactive) | > 50 µM (inactive) | > 50 µM (inactive) | > 50 µM (inactive) | > 50 µM (inactive) | > 50 µM (inactive) | > 50 µM (inactive) | > 50 µM (inactive) | > 50 µM (inactive)
Nc1nc(N)c(-c2ccccc2)c(C(=O)Nc2ccc(Cl)c(Cl)c2)n1 | > 100 µM (inactive) | > 100 µM (inactive) |  |  | > 100 µM (inactive) | > 100 | > 100 µM (inactive) | > 100 µM (inactive) | > 100 µM (inactive) | > 100 µM (inactive) |  | > 100 µM (inactive) | > 100 µM (inactive) | > 100 µM (inactive) | > 100 µM (inactive) | > 100 µM (inactive) | > 100 µM (inactive)
O=C(CCC(=O)Nc1cccc(Cl)c1)CC(=O)c1ccc(Cl)cc1 | > 100 µM (inactive) | > 100 µM (inactive) |  | > 100 µM (inactive) |  | > 100 | > 100 µM (inactive) | > 100 µM (inactive) | > 100 µM (inactive) | > 100 µM (inactive) | > 100 µM (inactive) | > 100 µM (inactive) |  | > 100 µM (inactive) | > 100 µM (inactive) | > 100 µM (inactive) | > 100 µM (inactive)
COc1cc(Br)c(CC2NCCc3cc(OC)c(OC)cc32)cc1OC (centres undefined) | 79.1 µM (inactive) | 68.7 µM (inactive) | > 100 µM (inactive) | 32.7 µM (inactive) | > 100 µM (inactive) |  | 28.4 µM (inactive) | 32.8 µM (inactive) | 73.6 µM (inactive) | 32.8 µM (inactive) | > 100 µM (inactive) | 86.1 µM (inactive) | 84.3 µM (inactive) | 40.2 µM (inactive) | 25.7 µM (inactive) | 34.9 µM (inactive) | > 100 µM (inactive)
Cc1cccc(/C=N/C23CC4CC(CC(C4)C2)C3)c1 | > 100 µM (inactive) | > 100 µM (inactive) | > 100 µM (inactive) | > 100 µM (inactive) | > 100 µM (inactive) | > 100 | > 100 µM (inactive) | > 100 µM (inactive) | > 100 µM (inactive) | > 100 µM (inactive) | > 100 µM (inactive) | > 100 µM (inactive) | > 100 µM (inactive) | > 100 µM (inactive) | > 100 µM (inactive) | > 100 µM (inactive) | > 100 µM (inactive)
O=c1ccc2ccccc2c2ccccc12 | 3.97 µM (inactive) | 2.81 µM (inactive) | 3.2 µM (inactive) | 4.6 µM (inactive) | 17.3 µM (inactive) | 1.87 | 2.96 µM (inactive) | 3.7 µM (inactive) | 2.58 µM (inactive) | 4.27 µM (inactive) | 4.37 µM (inactive) | 2.34 µM (inactive) | 2.34 µM (inactive) | 4.82 µM (inactive) | 3.81 µM (inactive) | 9.64 µM (inactive) | 2.82 µM (inactive)
Cc1ccc(NC(=O)SCCC(=O)O)cc1 | > 100 µM (inactive) | > 100 µM (inactive) | > 100 µM (inactive) | > 100 µM (inactive) | > 100 µM (inactive) | > 100 | > 100 µM (inactive) | > 100 µM (inactive) | > 100 µM (inactive) | > 100 µM (inactive) | > 100 µM (inactive) | > 100 µM (inactive) | > 100 µM (inactive) | > 100 µM (inactive) | > 100 µM (inactive) | > 100 µM (inactive) | > 100 µM (inactive)
COc1ccccc1NS(=O)(=O)c1cc(C(C)(C)C)ccc1OCCOc1ccc(C(C)(C)C)cc1S(=O)(=O)Nc1ccccc1OC | > 100 µM (inactive) | > 100 µM (inactive) | > 100 µM (inactive) | > 100 µM (inactive) | > 100 µM (inactive) | > 100 | > 100 µM (inactive) | > 100 µM (inactive) | 45.4 µM (inactive) | > 100 µM (inactive) |  | > 100 µM (inactive) | > 100 µM (inactive) | > 100 µM (inactive) | > 100 µM (inactive) | > 100 µM (inactive) | > 100 µM (inactive)
O=c1[nH]c(=O)n(C2CC(O)C(CO)O2)cc1C#Cc1ccc(C(F)(F)F)cc1 (centres undefined) | > 100 µM (inactive) |  | > 100 µM (inactive) | > 100 µM (inactive) | 63.2 µM (inactive) | > 100 | > 100 µM (inactive) | > 100 µM (inactive) | > 100 µM (inactive) | > 100 µM (inactive) | > 100 µM (inactive) | > 100 µM (inactive) | > 100 µM (inactive) | > 100 µM (inactive) | > 100 µM (inactive) | > 100 µM (inactive) | > 100 µM (inactive)
CCOC(=O)[C@@]12C(C)=CC(=O)O[C@]1(C)C[C@H]2C#N | > 100 µM (inactive) |  | > 100 µM (inactive) | > 100 µM (inactive) | > 100 µM (inactive) | > 100 | > 100 µM (inactive) | > 100 µM (inactive) | > 100 µM (inactive) | 50.9 µM (inactive) |  | > 100 µM (inactive) | > 100 µM (inactive) | > 100 µM (inactive) | > 100 µM (inactive) | > 100 µM (inactive) | > 100 µM (inactive)
C[C@]12CCC(=O)C=C1CC[C@@H]1C2CC[C@]2(C)Nc3[nH]ncc3CC12 (some centres undefined) | > 100 µM (inactive) | > 100 µM (inactive) | > 100 µM (inactive) |  | 77.4 µM (inactive) | > 100 | > 100 µM (inactive) | > 100 µM (inactive) | > 100 µM (inactive) | 60.3 µM (inactive) |  | > 100 µM (inactive) | > 100 µM (inactive) | > 100 µM (inactive) | > 100 µM (inactive) | > 100 µM (inactive) | 
CN(C)CCN(C)CC1COC(C)(C)O1 (centres undefined) | > 100 µM (inactive) | > 100 µM (inactive) | > 100 µM (inactive) | > 100 µM (inactive) | > 100 µM (inactive) |  | > 100 µM (inactive) | > 100 µM (inactive) | > 100 µM (inactive) | > 100 µM (inactive) | > 100 µM (inactive) | > 100 µM (inactive) | > 100 µM (inactive) | > 100 µM (inactive) | > 100 µM (inactive) | > 100 µM (inactive) | > 100 µM (inactive)
